Where “and” joins values, the source holds several entries; their conditions need not be identical. Equal entries are not always repeated. Where two headings read alike, the source gives them in different places. Marks after values point to notes of the source that are not given here.
Experiments:
CYP2D6 = CYP2D6 (Homo sapiens, UniProt P10635); experiment: CYP inhibition in liver microsomes (dextromethorphan); type: in vitro ADME; conditions: CYP 2D6, marker substrate dextromethorphan
Description: (§1) A liver microsome working solution (20 mg/mL) contained potassium phosphate buffer (0.1 M, pH 7.4), hepatic microsomes and marker substrate solution, which phenacetin, diclofenic acid, S-mephenytoinwer, dextromethorphan, midazolam, coumarin and chlorzoxazone used as substrates for […], CYP2C9, CYP2C19, CYP2D6, CYP3A4/5, CYP2A6 and CYP2E1, respectively. In brief, 238.5 µL of liver microsome working solution was placed in a 1 mL EP tube. […] The reaction was started by injecting NADPH (1 mM), and the resulting mixture was incubated at 37 °C for 10 min. After centrifuging at 4000 rpm for 15 min, the supernatant was transferred and analyzed using LC-MS/MS to detect the corresponding metabolites. Each incubation was conducted in triplicate (n = 3).
(§2) An API 4000 LC/tandem mass spectrometry was used to analyze the concentration of metabolites of various chemical agents using a validated mode. An Atlantis T3 column (2.1 mm × 50 mm, 5 μm) was utilized, employing mobile phases consisting of a 0.1% formic acid solution (A) and a 0.1% acetonitrile formate solution (B). […] MRM was utilized to quantify each metabolite, detecting the following transitions: m/z 152.1/110 for acetaminophen, 312.1/230.0 for 4′-Hydroxydiclofenac, 235.0/150.0 for 4′-hydroxymephentoin, 258.2/199.1 for Dextrorphan, 342.1/203.0 for 1′-hydroxymidazolam, 161.1/133.1 for hydroxycoumarin, and 184.0/120.0 for 6-hydroxyclozoxadone.

CYP3A4/5 = experiment: CYP inhibition in liver microsomes (midazolam); conditions: CYP 3A4/5(M); marker substrate midazolam; liver microsomes
Description: as §1
An API 4000 LC/tandem mass spectrometry was used to analyze the concentration of metabolites of various chemical agents using a validated mode. An Atlantis T3 column (2.1 mm × 50 mm, 5 μm) was utilized, employing mobile phases consisting of a 0.1% formic acid solution (A) and a 0.1% acetonitrile formate solution (B). […] As for the detection of CYP 2E1 metabolite, the Flow composition was as follows: 0–0.30 min, 10% B; 0.30–1.30 min, 10–55% B; 1.30–1.50 min, 55–95% B; 1.50–2.00 min, 95% B; 2.00–2.01 min, 95–10% B; the low rate was 0.85 mL/min. ESI was conducted in positive ion mode. MRM was utilized to quantify each metabolite, detecting the following transitions: m/z 152.1/110 for acetaminophen, 312.1/230.0 for 4′-Hydroxydiclofenac, 235.0/150.0 for 4′-hydroxymephentoin, 258.2/199.1 for Dextrorphan, 342.1/203.0 for 1′-hydroxymidazolam, 161.1/133.1 for hydroxycoumarin, and 184.0/120.0 for 6-hydroxyclozoxadone.

[1] = Stereoselective pharmacokinetics in rat plasma; type: in vivo, Sprague–Dawley rats; conditions: for MRT last: read-out: MRT(0–t); for chiral transformation between enantiomers: single enantiomers orally administered (75 mg/kg)
Description: The pharmacokinetic data were optimally characterized by a noncompartmental model. The mean concentration-time profiles for the farrerol enantiomers are illustrated in Figure 3, along with the corresponding key pharmacokinetic parameters presented in Table 2.
Twenty-five rats were randomly divided into five experimental groups (A, B, C, D, and E). Groups A and B received farrerol racemate via intragastric administration at doses of 150 mg/kg and 75 mg/kg, respectively. Group C was administered 4 mg/kg of farrerol racemate through caudal intravenous administration. […] Blood samples (300 μL) were obtained from the orbital venous plexus into heparinized tubes at various time points: 0.25, 0.5, 1, 2, 3, 5, 7, 9, 12, and 24 h following gavage administration, and at 0.083, 0.167, 0.25, 0.5, 1, 1.5, 2, 2.5, 3, and 5 h post-intravenous administration. Plasma was separated by centrifugation (3000 rpm, 10 min) and stored at −80 °C until analysis.
A total of 150 μL of plasma and 50 μL of the internal standard solution were added to a 1.5 mL EP tube and mixed using a vortex for 30 s. Subsequently, 500 μL of ether was introduced, and the mixture was vortexed for 5 min. Following centrifugation at 10,000 rpm for 10 min, the resulting organic layer was carefully transferred to a separate tube. Each sample underwent two extraction processes. The resulting ether layer was then evaporated to dryness using a continuous air stream at room temperature. A 250 μL aliquot of methanol was employed to re-dissolve the residue, utilizing vortex mixing for 2 min. Following centrifugation at 14,000 rpm for 10 min, the supernatant was subsequently injected into the HPLC-MS system for analysis.
Stereoselective chromatographic analysis of farrerol enantiomers was conducted utilizing an ACQUITY UPLC I-Class UPLC system (Waters, Milford, MA, USA), which is equipped with a quaternary pump and an autosampler. The chiral separation was carried out employing a Chiralpak OJ-RH column (250 mm × 4.6 mm, 5 μm), which was obtained from Daicel Chemical Industries (Shanghai, China). The mobile phase consisted of ACN-H2O (60:40, v/v), and the constant flow rate was 0.5 mL/min. The column temperature was set at 25 °C, and the injection volume was 10 μL.
Mass detection was conducted using a triple quadrupole mass spectrometer (Waters Co., USA) equipped with an electrospray ionization (ESI) source. The detection of enantiomers and internal standards (IS) was carried out in multiple reaction monitoring (MRM) mode utilizing negative ionization. The m/z 299→179 for enantiomers and m/z 267→252 for IS were selected as detecting ions for quantitation. The collision energies (CE) were established at 22 eV and 20 eV, respectively. The primary mass spectrometry (MS) parameters were configured as follows: capillary voltage was set to 3.5 kV, ion source temperature was maintained at 150 °C, desolvation gas flow rate was 800 L/h, and the cone voltage (CV) was adjusted to 1.3 V.
Pharmacokinetic analysis was conducted utilizing the Drug and Statistics (DAS) 2.0 software provided by the Chinese Pharmacological Society. To assess the differences in pharmacokinetic parameters, the IC50 values of the evaluated CYP enzymes and the permeability coefficients between the two farrerol enantiomers, paired sample t-tests and independent sample t-tests were performed. Statistical significance was defined as * p < 0.05 and ** p < 0.01. All results are presented as mean values ± standard deviation (SD).

CYP2C19 = CYP2C19 (Homo sapiens, UniProt P33261); experiment: CYP inhibition in liver microsomes (S-mephenytoin); type: in vitro ADME; conditions: CYP 2C19, marker substrate S-mephenytoin
Description: as §1, §2

[2] = Sprague-Dawley, rat, plasma, iv, 4 mg/kg, i.v. of farrerol racemate (4 mg/kg)
[3] = Sprague-Dawley, rat, plasma, po, 150 mg/kg, i.g. of farrerol racemate (150 mg/kg)
[4] = i.g. of farrerol racemate (75 mg/kg)
[5] = i.g. of farrerol racemate (150 mg/kg)
[6] = i.g. of the single enantiomer (75 mg/kg)
[7] = i.v. of farrerol racemate (4 mg/kg)
[8] = oral 75 mg/kg farrerol racemate
[9] = Sprague-Dawley, rat, plasma, po, 75 mg/kg, i.g. of the single enantiomer (75 mg/kg)

Chain of CYP2C19 (P33261 whole entry): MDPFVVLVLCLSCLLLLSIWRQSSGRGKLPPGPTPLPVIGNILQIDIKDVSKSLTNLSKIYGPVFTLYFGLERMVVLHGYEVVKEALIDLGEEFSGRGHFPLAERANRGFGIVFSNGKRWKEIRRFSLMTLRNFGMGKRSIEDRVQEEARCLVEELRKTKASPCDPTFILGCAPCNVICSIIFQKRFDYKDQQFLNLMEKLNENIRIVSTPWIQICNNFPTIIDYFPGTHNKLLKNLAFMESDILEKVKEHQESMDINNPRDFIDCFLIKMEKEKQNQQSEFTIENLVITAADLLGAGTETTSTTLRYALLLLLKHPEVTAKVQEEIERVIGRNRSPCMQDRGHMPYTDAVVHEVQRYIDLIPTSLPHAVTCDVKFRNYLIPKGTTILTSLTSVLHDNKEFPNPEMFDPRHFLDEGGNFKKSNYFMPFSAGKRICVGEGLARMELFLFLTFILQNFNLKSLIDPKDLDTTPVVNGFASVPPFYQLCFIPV
Chain of CYP2D6 (P10635 whole entry): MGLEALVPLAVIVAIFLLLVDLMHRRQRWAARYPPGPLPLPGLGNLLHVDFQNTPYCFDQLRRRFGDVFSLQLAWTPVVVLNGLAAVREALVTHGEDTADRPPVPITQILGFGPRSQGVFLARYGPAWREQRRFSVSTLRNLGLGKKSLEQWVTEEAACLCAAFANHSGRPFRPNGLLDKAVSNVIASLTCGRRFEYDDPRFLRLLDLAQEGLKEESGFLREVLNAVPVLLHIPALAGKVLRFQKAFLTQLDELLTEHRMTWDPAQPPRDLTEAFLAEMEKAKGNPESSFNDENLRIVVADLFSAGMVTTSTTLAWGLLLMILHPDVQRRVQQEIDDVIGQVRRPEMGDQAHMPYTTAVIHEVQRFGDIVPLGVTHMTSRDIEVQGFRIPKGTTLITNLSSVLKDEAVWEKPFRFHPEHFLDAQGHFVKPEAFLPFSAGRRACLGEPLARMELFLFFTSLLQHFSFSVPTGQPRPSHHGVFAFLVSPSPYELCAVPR

Row | Structure (SMILES) | IC50 (CYP2D6) | IC50 (CYP3A4/5) | AUC(0–t) [1, 4] | AUC(0–∞) [1, 4] | Cmax [1, 4] | F [1, 4] | Tmax [1, 4] | t1/2 [1, 4] | AUC(0–t) [1, 5] | AUC(0–∞) [1, 5] | t1/2 [1, 5] | AUC(0–∞) [1, 6] | Cmax [1, 6] | Tmax [1, 6] | Cmax [1, 7] | chiral transformation between enantiomers [1] | IC50 (CYP2C19) | other results
1 | Cc1c(O)c(C)c2c(c1O)C(=O)CC(c1ccc(O)cc1)O2 (single isomer, unassigned; (+)) [(+)-farrerol, 2,3-dihydro-5,7-dihydroxy-2-(4-hydroxyphenyl)-6,8-dimethyl-4-benzopyrone] | > 50 µM | > 5e-05 M | 2399 ng·h/mL and 2399.1 ± 102.3 ng·h/mL | 6870.3 ± 511.4 ng·h/mL | 287.0 ± 24.6 ng/mL | 8.7 ± 0.7% | 3.00 h | 19.2 ± 2.0 ** h | 3522.6 ± 146.0 ng·h/mL | 13,885.5 ± 2550.4 ng/mL*h | 22.9 ± 2.6 h | 22,122.4 ± 1894.1 ng/mL*h | 1177.4 ± 84.5 ng/mL | 5.00 h | 2662.7 ± 226.4 ng/mL | no chiral transformation | 1.61 µM | AUC(0-inf) [1, 2]: 1550 ± 56 ng·h/mL; AUC(0-t) [1, 2]: 1460 ± 54.5 ng·h/mL; half-life [1, 2]: 10.7 ± 0.1 h; Cmax ([1]; Sprague-Dawley, rat, plasma, iv, 4 mg/kg, i.v. of farrerol racemate (4 mg/kg), read-out: Cmax): 2660 ng/mL; MRT last [1, 2]: 2.7 ± 0.1 h; Tmax ([1]; Sprague-Dawley, rat, plasma, iv, 4 mg/kg, i.v. of farrerol racemate (4 mg/kg), read-out: Tmax): 0.08 h; MRT last ([1]; Sprague-Dawley, rat, plasma, po, 75 mg/kg, i.g. of farrerol racemate (75 mg/kg)): 6.27 ± 0.27 h; bioavailability [1, 3]: 6.4 ± 0.04%; Cmax ([1]; Sprague-Dawley, rat, plasma, po, 150 mg/kg, i.g. of farrerol racemate (150 mg/kg), read-out: Cmax): 457 ± 24.6 ng/mL; MRT last [1, 3]: 5.98 ± 0.14 h; Tmax ([1]; Sprague-Dawley, rat, plasma, po, 150 mg/kg, i.g. of farrerol racemate (150 mg/kg), read-out: Tmax): 1.5 h; MRT(0–t) [1, 6]: 9.12 ± 0.18 h; t1/2 [1, 6]: 10.4 ± 0.4 h; AUC0–t of (+)-farrerol relative to (−)-farrerol [1, 8]: ~5.6 fold; Cmax of (+)-farrerol relative to (−)-farrerol [1, 8]: about 3.5 fold; AUC0–t of (+)-farrerol relative to (−)-farrerol ([1]; oral 75 mg/kg of single enantiomers): ~2.61 fold
2 | Cc1c(O)c(C)c2c(c1O)C(=O)CC(c1ccc(O)cc1)O2 (single isomer, unassigned; (-)) [(−)-farrerol, 2,3-dihydro-5,7-dihydroxy-2-(4-hydroxyphenyl)-6,8-dimethyl-4-benzopyrone] | > 50 µM | 2.09e-05 M | 428.3 ± 88.2 ** ng/mL*h | 1341.8 ± 337.6 ** ng/mL*h | 80.5 ± 7.5 ** ng/mL | 2.3 ± 0.05 ** % | 1.00 * h | 8.5 ± 1.5 ** h | 1622.6 ± 84.3 ** ng/mL*h | 1837.8 ± 226.9 ** ng/mL*h | 3.5 ± 0.4 ** h | 8572.4 ± 221.0 ng·h/mL | 520.9 ± 91.7 ng/mL | 2.00 ^# h | 1695.0 ± 224.6 ** ng/mL | no chiral transformation | 2.07 µM | half-life [1, 9]: 12 ± 0.5 h; MRT last [1, 9]: 10.8 ± 0.47 h; MRT(0–t) [1, 4]: 5.61 ± 0.56 h; Cmax [1, 5]: 390.0 ± 35.3 * ng/mL; F [1, 5]: 4.3 ± 0.7 * %; MRT(0–t) [1, 5]: 4.65 ± 0.06 h; Tmax [1, 5]: 1.50 h; AUC(0–t) [1, 6]: 6746.8 ± 298.7 ng·h/mL; AUC(0–t) [1, 7]: 1012.4 ± 88.1 ** ng/mL*h; AUC(0–∞) [1, 7]: 1195.7 ± 49.7 ** ng/mL*h; MRT(0–t) [1, 7]: 3.48 ± 0.07 * h; Tmax [1, 7]: 0.08 h; t1/2 [1, 7]: 19.0 ± 3.7 * h
